{"source": "patent US7638269B2", "about": "“Viral capsid assembly intermediates and methods of production” (priority 1997, dated 2009)", "molecules": {"B1": {"name": "WGHP68-Tr1: 379 amino acid truncated form of wheat germ HP68, stop codon before the second nucleotide-binding domain (protein)", "chain": "MADRLTRIAIVSEDKCKPKKCRQECKKSCPVVKTGKLCIEVSPVAKLAFISEELCIGCGICVKKCPFDAIEIINLPKDLEKDTTHRYGPNTFKLHRLPVPRPGQVLGLVGTNGIGKSTALKVLAGKLKPNLGRFKNPPDWQEILTYFRGSELQNYFTRILEDNLKAIIKPQYVDHIPKAVQGNVGQVLEQKDERDMKNELCVDLELNQVIDRNVGDLSGGELQRFAIAVVAVQSAEIYMFDEPSSYLDVKQRLKAARVIRSLLRSNSYVIVVEHDLSVLDYLSDFICCLYGKPGAYGVVTLPFSVREGINIFLAGFVPTENLRFRDESLTFKIAETQESAEEVATYQRYKYPTMSKTQGNFKLSVVEGEFTDSQIVVM"}, "B2": {"name": "WGHP68-GST: fusion protein of wheat germ HP68 with GST at the N-terminus (protein)", "chain": "MADRLTRIAIVSEDKCKPKKCRQECKKSCPVVKTGKLCIEVSPVAKLAFISEELCIGCGICVKKCPFDAIEIINLPKDLEKDTTHRYGPNTFKLHRLPVPRPGQVLGLVGTNGIGKSTALKVLAGKLKPNLGRFKNPPDWQEILTYFRGSELQNYFTRILEDNLKAIIKPQYVDHIPKAVQGNVGQVLEQKDERDMKNELCVDLELNQVIDRNVGDLSGGELQRFAIAVVAVQSAEIYMFDEPSSYLDVKQRLKAARVIRSLLRSNSYVIVVEHDLSVLDYLSDFICCLYGKPGAYGVVTLPFSVREGINIFLAGFVPTENLRFRDESLTFKIAETQESAEEVATYQRYKYPTMSKTQGNFKLSVVEGEFTDSQIVVMLGENGTGKTTFIRMLAGLLKPDTMEGTEVEIPEFNVSYKPQKISPKFQHPVRHLLHSKIRDSYTHPQFVSDVMKPLQIEQLMDQEVINLSGGELQRVALCLCLGKPADIYLIDEPSAYLDSEQRIVASKVIKRFILHAKKTAFIVEHDFIMATYLADKVIVYEGLASIDCTANAPQSLVSGMNKFLSHLDITFRRDPTNYRPRINKLESTKDREQKNAGSYYYLDD", "modifications": "left off: a dimerising Fc or GST", "notes": "fusion protein of wheat germ HP68 with GST at the N-terminus"}}, "key": {"[1]": {"tested_on": "immature HIV capsids (Gag Pr55)", "assay": "Cell-free translation and assembly of HIV capsids in wheat germ extract programmed with Gag transcript", "assay_type": "biochemical", "settings": "for Material in fractions corresponding to Final Capsid / Material in fractions corresponding to complex A / Material in fractions corresponding to complexes B/C: velocity sedimentation, apyrase added post-translationally, detergent cotranslationally", "experimental": "Translation of the transcription products was carried out in wheat germ extract containing ^35S methionine (ICN Pharmaceuticals, Costa Mesa, Calif.). The wheat germ extract was prepared as described by Erickson and Blobel (1983) as modified below. Reactions were performed as previously described (Lingappa, J. R., et al., J. Cell. Biol. (1984) 125:99-111), except for modifications noted below.\nA 25 microliter wheat germ transcription/translation reaction mixture contained: 5 microliters Gag transcript (prepared as described in transcription methods), 5 microliters wheat germ extract (prepared as described in wheat germ preparation; preferably using the high speed supernatant detailed in Example 4), 5 microliters 35-S Energy Mix 5× stock (Sigma Chemical Co., St. Louis, Mo.), 2.5 microliters Compensating Buffer (Sigma Chemical Co.), 1.0 microliter 40 mM MgAcetate (Sigma Chemical Co.), 2.0 microliters […] Myristoyl CoA (made up in 20 mM Tris Acetate, pH 7.6; Sigma Chemical Co.), 3.75 microliters 20 mM Tris Acetate buffer, […] (U.S. Biochemicals; Cleveland, Ohio), 0.25 microliter Creatine Kinase (4 mg/ml stock in 50% glycerol, 10 mM Tris Acetate; Boehringer Mannheim, Indianapolis, Ind.), 0.25 microliter bovine tRNA (10 mg/ml stock; Sigma Chemical Co.), and 0.25 microliter RNAse Inhibitor (20 units/50; Promega).\nMyristoyl coenzyme A (MCoA; Sigma, St. Louis, Mo.) was added at a concentration of 10 micromolar at the start of translation when indicated. Translation reactions ranged in volume from 20 to 100 microliters and were incubated at 25° C. for 150 min. Some reactions were adjusted to a final concentration of the following agents at tunes indicated in the figures and specification: 0.2 μM emetine (Sigma); 1.0 units apyrase (Sigma) per mL translation; 0.002%, 0.1%, or 1.0% “NIKKOL”. Cell-free translation and assembly reactions were also carried out successfully in rabbit reticulocyte lysate prepared as described previously (Merrick, W. C., Methods Enzymol. 101:606-615 (1983)) or obtained from commercial suppliers (Promega, Madison, Wis.). In pulse-chase experiments, translation reactions contained ^35S cysteine (Amersham Life Sciences, Cleveland, Ohio) for radiolabeling. After 4 min translation reaction time, 3 mM unlabeled cysteine was added, and the reaction was continued at 25° C. for variable chase times as indicated in the experiments described herein.\nWhere indicated, wheat germ extract prepared as described in Example 1 was centrifuged at either 50,000 rpm for 21 min or 100,000 rpm for 30 min in a TLA 100 rotor (Beckman Instruments, Palo Alto, Calif.). The supernatant (high-speed supernatant, HSS) of the 50,000 rpm spin was used for cell-free translation and assembly reactions. The pellet of the 100,000 rpm spin (high speed pellet, HSP) was resuspended at a 5× concentration in buffer (25 mM Hepes pH 7.4, 4 mM MgAc, 100 mM KAc, 0.25M sucrose). Wheat germ extract adjusted to contain a concentration 0.5% “NIKKOL” was subjected to the same ultracentrifugation in parallel to generate the detergent treated high-speed pellet (HSPd). This pellet was washed twice with […] of the above non-detergent buffer in order to remove traces of detergent, and then resuspended as described above. Following treatment with emetine at […], 1.8 μL of HSP or HSPd was added to the […] cell-free reactions programmed with HSS. Control reactions were treated with the same volume of buffer at the same time. At the end of the 150 min incubation, reactions were separated into soluble and particulate fractions and analyzed as described above.\nThe cell-free translation/assembly system of the invention contains the components described in Part A, above. Example 1 provides details of an exemplary system derived from wheatgerm extract, which is capable of supporting translation and assembly of HIV capsids. Briefly, protein synthesis was initiated in the cell-free translation/assembly system by adding an mRNA that encodes Gag Pr55 protein. […]"}, "HBV capsids (HBV core)": {"tested_on": "HBV capsids (HBV core)", "sequence (P03146 whole entry)": "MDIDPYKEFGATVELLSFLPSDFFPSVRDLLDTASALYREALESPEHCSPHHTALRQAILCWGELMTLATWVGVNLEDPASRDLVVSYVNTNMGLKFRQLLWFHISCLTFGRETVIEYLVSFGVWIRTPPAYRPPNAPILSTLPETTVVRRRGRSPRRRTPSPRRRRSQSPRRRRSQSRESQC", "assay_type": "biochemical", "quoted_text": "The radiolabeled translation products were analyzed for formation of HBV core multimers by rae sedimentation on 10-50% sucrose gradients at 200,000 g for 1 h. Following fractionation of the gradients, the migration of radiolabeled core proteins was determined using SDS-PAGE, Coomassie staining, and autoradiography. Under these conditions, unlabeled protein standards of less than 12S, such as catalase, migrated in the first three fractions. […] The first region, at the top of the gradient (7) corresponds to the position of monomeric and small oligomeric core polypeptides, while the second region, in the middle of the gradient (M), corresponds to the position of authentic capsids. The third region, in the pellet (P), represents very high molecular weight structures. The possibility that either the pellet or the middle fraction consists of completed chains not yet released from ribosomes was ruled out by treatment of the translation products after completion of synthesis with EDTA, which is known to disassemble ribosomes (Sabatini et al., 1966).\nTo address this, pellet material was isolated by fractionating the products of a 30-min translation of HBV core on a sucrose gradient and resuspending the pellet in buffer. The resuspended pellet was divided into equal aliquots and treated either with aphyase or with buffer for 90 min at 24° C."}, "HIV-1 particle formation": {"tested_on": "HIV-1 particle formation", "assay_type": "cell-based", "settings": "Cos-1 cells", "experimental": "Cos-1 cells were transfected using Gag expression plasmids pCMVRev and PSVGagRRE-R described in Simon et al, J. Virology, (1997) 71:1013-18. HP68 plasmids for mammalian expression were constructed by using PCR to insert the coding regions for WGHP68, amino acids 1-378, Nhe1/Xba1 of pCDNA 3.1 (Invitrogen). Coding regions of all constructs were sequenced. Cells were transfected using Gibco Lipofectamine (Cos-1) or Lipofectamine Plus (293T). All transfections used a constant amount of DNA (18 μg per 60 mm dish). Medium was changed 24 hours after transfection and harvest was performed 28 or 60 hours after transfection for immunofluorescence and immunoblotting respectively. For immunofluorescence, cells were fixed in paraformaldehyde, permeabilized with 1% triton, and incubated with mouse HIV-1 Gag antibody (1:50) and affinity-purified HuHP68 antiserum (1:2000), followed by Cy3- and Cy 2-coupled secondary (Jackson) (1:200). 178 cells were quantitated. For immunoblotting in FIG. 13 rat IgG was added to medium as a tracer at 10 μg/ml at the time of harvest, and cells were harvested in SDS sample buffer with boiling. For quantitation of immunoblotts, bands were compared to an immunoblot standard curve generated with known quantities of sample. […]"}, "[2]": {"tested_on": "750S immature HIV-1 capsids", "assay": "HP68 immunodepletion-reconstitution of cell-free HIV-1 capsid assembly", "assay_type": "biochemical", "experimental": "WG extract (150 μl) was immunodepleted for 45 min at 4° C. with 100 μl beads coupled to antibody against WGHP68. Cell-free reactions (15 μl) were programmed (Lingappa et al., J. Cell Biol. 136:567-81 (1997)) using non-depleted WG or depleted WG. To some reactions containing depleted WG, purified WGHP68-GST or HuHP68-GST fusion protein or GST alone was added (2 μl of approx. 20 ng/μl) at the start of the reaction. After 3 hours at 26° C., NP40 was added to a final concentration of 1% and reactions underwent velocity sedimentation (5 ml, 15-60% sucrose gradients, Beckman MLS55 rotor: 45,000 rpm, 45 min). Thirty fractions, collected using a fractionator, were analyzed by SDS-PAGE and AR, followed by densitometry of Gag in each lane. For Proteinase K digestion, aliquots of fractions from the 500S and 750S regions of the gradient were collected and subjected to a 10 min incubation at RT with either no Proteinase K or 0.1 μg/ml Proteinase K. Digestion was terminated by adding SDS and freezing. Samples were analyzed by SDS-PAGE and AR. Graphs show average of three independent experiments (+/−SEM).\nTo generate purified HP68, WGHP68 and HuHP68 were subcloned into a pGEX vector (Pharmacia), to encode fusion proteins containing GST at the N-terminus. […] Concentration of fusion protein and GST in eluate was determined using the Coomassie Plus protein assay (Pierce). […]"}, "[3]": {"settings": "emetine added after 50 min, incubated to 150 min"}}, "note": "Entries after “also recorded” stand apart in the source; their conditions may differ."}
{"molecule": "Nc1ncnc2c1ncn2[C@@H]1O[C@H](COP(=O)(O)OP(=O)(O)NP(=O)(O)O)[C@@H](O)[C@H]1O", "note": "[AMP-PNP]", "values": [{"measurement": "reversal of the effect of ATP depletion on assembly", "setting": "[1]; added after apyrase treatment", "value": "not reversed"}]}
{"molecule": "O=C(O)CN(CCN(CC(=O)O)CC(=O)O)CC(=O)O", "note": "[EDTA]", "values": [{"measurement": "distribution of labeled core polypeptides in top, middle and pellet fractions", "setting": "HBV capsids (HBV core); treatment of translation products after completion of synthesis, 10 mM", "value": "largely unaffected; also recorded: had no effect"}]}
{"molecule": "CCCCCCCCCCCCCC(=O)SCCNC(=O)CCNC(=O)[C@H](O)C(C)(C)COP(=O)(O)OP(=O)(O)OC[C@H]1O[C@@H](n2cnc3c(N)ncnc32)[C@H](O)[C@@H]1OP(=O)(O)O", "note": "[MCoA, Myristoyl Coenzyme A]", "values": [{"measurement": "total amount of Pr55 synthesized", "setting": "[1]; 10 μM MCoA", "value": "had no effect on the total amount of Pr55 synthesized"}, {"measurement": "assembly into capsids", "setting": "[1]; 10 μM MCoA added at 90 min, post-translational phase", "value": "very little assembly occurred"}]}
{"molecule": "CCCCCCCCCCCCOCCOCCOCCOCCOCCOCCOCCOCCO", "note": "[NIKKOL, octaethyleneglycol mono n-dodecyl ether]", "values": [{"measurement": "capsid assembly", "setting": "[1]; 0.002% added at start of translation, 10 μM MCoA", "value": "This effect was not observed"}, {"measurement": "capsid assembly", "setting": "[1]; 0.1% added at start of translation, 10 μM MCoA", "value": "largely abolished capsid assembly"}, {"measurement": "amount of assembly", "setting": "[1]; added after completion of the 150 min assembly reaction, up to 1.0%", "value": "did not diminish the amount of assembly"}, {"measurement": "Gag polypeptide synthesis", "setting": "[1]; concentration of 0.1%", "value": "had no effect on Gag polypeptide synthesis"}, {"measurement": "assembly", "setting": "[1]; emetine and 0.1% NIKKOL, post-translational phase 50 min into the reaction", "value": "assembly was dramatically reduced"}, {"measurement": "Material in fractions corresponding to Final Capsid", "setting": "[1]", "value": 189}, {"measurement": "Material in fractions corresponding to complex A", "setting": "[1]", "value": 2656}, {"measurement": "Material in fractions corresponding to complexes B/C", "setting": "[1]", "value": 6130}]}
{"molecule": "CC[C@H]1CN2CCc3cc(OC)c(OC)cc3[C@@H]2C[C@@H]1C[C@H]1NCCc2cc(OC)c(OC)cc21", "note": "[emetine]", "values": [{"measurement": "proportion of capsid assembly", "setting": "[1]; [3]", "value": "comparable to that of the untreated control"}, {"measurement": "total Pr55 synthesis, of the control", "setting": "[1]; [3]", "value": 60, "unit": "%"}, {"measurement": "effect on treatment of the isolated pellet with energy substrates or apyrase", "setting": "HBV capsids (HBV core)", "value": "did not affect the results"}]}
{"molecule": "apyrase", "values": [{"measurement": "amount of assembly (capsid stability)", "setting": "[1]; apyrase added after capsid assembly was completed", "value": "had no effect on the amount of assembly"}, {"measurement": "total amount of Pr55 synthesis", "setting": "[1]; apyrase added after emetine at 50 min", "value": "did not change the total amount of Pr55 synthesis"}, {"measurement": "capsid assembly", "setting": "[1]; apyrase added immediately after 0.2 μM emetine at 50 min, 150 min", "value": "dramatic reduction in capsid assembly"}, {"measurement": "Material in fractions corresponding to Final Capsid", "setting": "[1]", "value": 133}, {"measurement": "Material in fractions corresponding to complex A", "setting": "[1]", "value": 2851}, {"measurement": "Material in fractions corresponding to complexes B/C", "setting": "[1]", "value": 5999}, {"measurement": "release of capsids from the isolated pellet", "setting": "HBV capsids (HBV core); resuspended pellet of a 30-min translation, 90 min at 24° C.", "value": "results in release of completed capsids from the pellet"}]}
{"molecule": "B1", "values": [{"measurement": "Gag and actin levels in cell lysates", "setting": "HIV-1 particle formation", "value": "remained unchanged"}, {"measurement": "toxicity to cells", "setting": "HIV-1 particle formation", "value": "not toxic to cells"}]}
{"molecule": "B2", "values": [{"measurement": "total amount of radiolabeled Gag synthesized", "setting": "[2]; added to HP68 immunodepleted WG extract", "value": "had no effect"}, {"measurement": "increase in the amount of 750S capsid", "setting": "[2]; added to HP68 immunodepleted WG extract programmed with HIV-1 Gag transcript", "value": 3, "unit": "fold"}]}
